Columns and labels:
[1] = target: T1, JAK3 (Homo sapiens, UniProt P52333); assay: JAK3 Inhibition Assay; format: biochemical; settings: 1 μM poly(Glu)4Tyr, 5 μM ATP, 1 nM JAK3, 25° C.; read-out: JAK3 enzyme inhibition data (Ki)
T1 sequence (P52333 1-1124): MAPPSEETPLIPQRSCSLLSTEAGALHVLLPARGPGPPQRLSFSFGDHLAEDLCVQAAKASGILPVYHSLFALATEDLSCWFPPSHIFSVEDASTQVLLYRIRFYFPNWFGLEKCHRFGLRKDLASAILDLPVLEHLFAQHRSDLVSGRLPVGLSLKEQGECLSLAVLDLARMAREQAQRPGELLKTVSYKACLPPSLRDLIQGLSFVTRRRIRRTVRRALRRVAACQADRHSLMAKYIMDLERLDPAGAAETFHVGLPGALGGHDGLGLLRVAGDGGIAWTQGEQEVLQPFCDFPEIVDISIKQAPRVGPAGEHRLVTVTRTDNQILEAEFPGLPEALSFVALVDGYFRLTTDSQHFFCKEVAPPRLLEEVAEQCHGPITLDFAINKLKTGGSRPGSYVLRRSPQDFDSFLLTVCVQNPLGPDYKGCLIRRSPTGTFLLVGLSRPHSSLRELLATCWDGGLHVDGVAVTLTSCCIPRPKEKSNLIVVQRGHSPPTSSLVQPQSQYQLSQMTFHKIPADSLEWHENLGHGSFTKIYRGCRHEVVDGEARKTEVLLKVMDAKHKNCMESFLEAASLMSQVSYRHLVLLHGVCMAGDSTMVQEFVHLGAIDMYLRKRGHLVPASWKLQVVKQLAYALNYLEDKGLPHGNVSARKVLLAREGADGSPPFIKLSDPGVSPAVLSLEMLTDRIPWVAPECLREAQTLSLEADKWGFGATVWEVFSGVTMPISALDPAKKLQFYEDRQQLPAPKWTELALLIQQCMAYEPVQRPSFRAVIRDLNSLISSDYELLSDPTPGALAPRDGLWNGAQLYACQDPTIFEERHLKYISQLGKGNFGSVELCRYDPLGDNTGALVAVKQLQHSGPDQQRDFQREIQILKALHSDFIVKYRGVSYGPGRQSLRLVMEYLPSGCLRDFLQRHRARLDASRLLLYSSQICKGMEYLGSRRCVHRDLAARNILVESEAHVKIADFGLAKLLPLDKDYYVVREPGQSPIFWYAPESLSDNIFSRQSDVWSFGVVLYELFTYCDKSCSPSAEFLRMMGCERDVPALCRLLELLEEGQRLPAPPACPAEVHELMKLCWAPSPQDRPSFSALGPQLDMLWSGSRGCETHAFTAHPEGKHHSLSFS
How it was run: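 Radiometric JAK3 (1 nM) reaction with 5 μM [33P]ATP and 1 μM poly(Glu)4Tyr in HEPES pH 7.4 buffer, run for 20 min at 25 °C. Reactions were stopped with TCA and filter-captured, and 33P incorporation was counted; values reported as Ki.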

[2] = target: JAK-2 enzyme (Homo sapiens, UniProt O60674); assay: JAK2 Inhibition Assay; format: biochemical; settings: 15 μM poly(Glu)4Tyr, 12 μM ATP, 25° C.
Chain of JAK-2 enzyme (O60674 whole entry, species assumed): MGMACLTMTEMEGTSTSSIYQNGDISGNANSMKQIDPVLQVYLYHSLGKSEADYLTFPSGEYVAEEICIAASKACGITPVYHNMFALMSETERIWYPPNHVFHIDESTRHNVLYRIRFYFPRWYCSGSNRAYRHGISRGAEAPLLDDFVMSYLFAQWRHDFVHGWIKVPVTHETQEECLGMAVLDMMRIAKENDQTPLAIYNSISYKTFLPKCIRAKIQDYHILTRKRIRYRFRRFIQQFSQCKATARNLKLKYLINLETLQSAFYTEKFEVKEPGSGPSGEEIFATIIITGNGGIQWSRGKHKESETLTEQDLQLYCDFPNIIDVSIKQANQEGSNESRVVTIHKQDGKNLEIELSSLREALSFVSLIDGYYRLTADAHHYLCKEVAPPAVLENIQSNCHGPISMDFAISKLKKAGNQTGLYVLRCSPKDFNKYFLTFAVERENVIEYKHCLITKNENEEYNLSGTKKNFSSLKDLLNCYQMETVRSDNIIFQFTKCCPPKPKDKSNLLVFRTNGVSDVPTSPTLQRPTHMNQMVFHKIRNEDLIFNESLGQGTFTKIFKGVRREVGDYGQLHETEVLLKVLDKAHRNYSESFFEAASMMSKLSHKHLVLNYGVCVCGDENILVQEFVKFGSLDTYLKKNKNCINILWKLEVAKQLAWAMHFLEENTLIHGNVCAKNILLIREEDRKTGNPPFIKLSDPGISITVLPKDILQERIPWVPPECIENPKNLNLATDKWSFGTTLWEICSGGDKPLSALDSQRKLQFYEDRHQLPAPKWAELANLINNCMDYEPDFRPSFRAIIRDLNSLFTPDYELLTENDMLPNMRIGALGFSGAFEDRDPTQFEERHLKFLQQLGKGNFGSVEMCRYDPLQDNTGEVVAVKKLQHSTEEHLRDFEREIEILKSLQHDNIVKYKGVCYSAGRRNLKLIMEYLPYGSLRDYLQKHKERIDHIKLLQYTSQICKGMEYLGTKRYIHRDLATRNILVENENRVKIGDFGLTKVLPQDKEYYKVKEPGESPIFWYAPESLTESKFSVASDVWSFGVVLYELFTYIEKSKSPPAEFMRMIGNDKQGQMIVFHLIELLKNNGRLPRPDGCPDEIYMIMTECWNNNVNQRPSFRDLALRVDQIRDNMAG
How it was run: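 JAK2 kinase in HEPES pH 7.4 buffer with MgCl2, DTT, NaCl and BSA; final 15 μM poly(Glu)4Tyr and 12 μM [33P]ATP. Enzyme added to start, 20 min at 25 °C, TCA stop, filter capture and scintillation count of 33P incorporation; Ki values.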

Row | SMILES | Ki [1] [nM] | Ki [2] [nM]
1 | CCN(Cc1ccccc1)C(=O)c1ccc(-c2ncnc3[nH]ccc23)o1 [Compound 118] | < 100 | < 100
2 | O=C(c1ccc(-c2ncnc3[nH]ccc23)o1)N(CC1CC1)CC(F)(F)F [Compound 120] | < 100 | < 100
3 | CCCN(CC(F)(F)F)C(=O)c1ccc(-c2ncnc3[nH]ccc23)o1 [Compound 121] | < 100 | < 100
4 | O=C(c1ccc(-c2ncnc3[nH]ccc23)o1)N(CCC(F)(F)F)CC1CC1 [Compound 122] | < 100 | < 100
5 | O=C(c1ccc(-c2ncnc3[nH]ccc23)o1)N(CCC(F)(F)F)Cc1ccccc1 [Compound 123] | < 100 | < 100
6 | N#CCN(Cc1ccccc1)C(=O)c1ccc(-c2ncnc3[nH]ccc23)o1 [Compound 124] | 100 to 500 | < 100
7 | N#CCCN(CC1CC1)C(=O)c1ccc(-c2ncnc3[nH]ccc23)o1 [Compound 125] | < 100 | < 100
8 | FC(F)(F)CN(Cc1coc(-c2ncnc3[nH]ccc23)c1)CC1CC1 [Compound 131] | < 100 | < 100
9 | N#CCCN(Cc1ccco1)C(=O)c1cc(-c2ncnc3[nH]ccc23)c[nH]1 [Compound 135] | < 100 | < 100
10 | N#CCCN(CC1CCCO1)C(=O)c1cc(-c2ncnc3[nH]ccc23)c[nH]1 (stereo not shown) [Compound 136] | 100 to 500 | < 100
11 | C#CCN(C(=O)c1cc(-c2ncnc3[nH]ccc23)c[nH]1)C1CCCCC1 [Compound 137] | 100 to 500 | < 100
12 | O=C(O)CCC(=O)Nc1nc(-c2ncnc3[nH]ccc23)cs1 [Compound 146] | 100 to 500 | 100 to 500
13 | COC(=O)C1CC=CCC1C(=O)Nc1nc(-c2ncnc3[nH]ccc23)cs1 (stereo not shown) [Compound 149] | 100 to 500 | < 100
14 | COC(=O)C1C2C=CC(C2)C1C(=O)Nc1nc(-c2ncnc3[nH]ccc23)cs1 (stereo not shown) [Compound 155] | 100 to 500 | < 100
15 | O=C1CCC(C(=O)Nc2nc(-c3ncnc4[nH]ccc34)cs2)C1 (stereo not shown) [Compound 167] | < 100 | < 100
16 | CC(=O)N1CCC(C(=O)Nc2nc(-c3ncnc4[nH]ccc34)cs2)CC1 [Compound 169] | < 100 | < 100

Row | SMILES | Ki [1] [nM] | Ki [2] [nM]
17 | O=C(CCC(=O)C1CC1)Nc1nc(-c2ncnc3[nH]ccc23)cs1 [Compound 170] | 100 to 500 | < 100
18 | COC(=O)N1CCC(C(=O)Nc2nc(-c3ncnc4[nH]ccc34)cs2)CC1 [Compound 171] | < 100 | < 100
19 | CN1CC(C(=O)Nc2nc(-c3ncnc4[nH]ccc34)cs2)CC1=O (stereo not shown) [Compound 172] | 100 to 500 | < 100
20 | O=C(Nc1nc(-c2ncnc3[nH]ccc23)cs1)C1CCN(C(=O)c2ccccc2)CC1 [Compound 173] | < 100 | < 100
21 | COc1ccc(C(=O)Nc2nc(-c3ncnc4[nH]ccc34)cs2)cc1 [Compound 175] | 100 to 500 | < 100
22 | O=C(Nc1nc(-c2ncnc3[nH]ccc23)cs1)C1CCCNC1 (stereo not shown) [Compound 176] | < 100 | < 100
23 | CC(C)(C)OC(=O)N1CCCC(C(=O)Nc2nc(-c3ncnc4[nH]ccc34)cs2)C1 (stereo not shown) [Compound 177] | 100 to 500 | 100 to 500
24 | CC(C)(C)OC(=O)N1CCC(C(=O)Nc2nc(-c3ncnc4[nH]ccc34)cs2)CC1 [Compound 178] | 100 to 500 | 100 to 500
25 | CS(=O)(=O)N1CCC(C(=O)Nc2nc(-c3ncnc4[nH]ccc34)cs2)CC1 [Compound 179] | < 100 | < 100
26 | O=C1[C@H]2CCCC[C@@H]2C(=O)N1c1nc(-c2ncnc3[nH]ccc23)cs1 [Compound 180] | 100 to 500 | 100 to 500
27 | O=C1[C@H]2CCCC[C@H]2C(=O)N1c1nc(-c2ncnc3[nH]ccc23)cs1 [Compound 181] | 100 to 500 | 100 to 500
28 | COC(=O)[C@@H]1CC[C@H](C(=O)Nc2nc(-c3ncnc4[nH]ccc34)cs2)C1 [Compound 182] | 100 to 500 | < 100
29 | N#CCCN(CC1CC1)C(=O)c1coc(-c2ncnc3[nH]ccc23)c1 [Compound 183] | < 100 | < 100
30 | O=C(c1cc(-c2ncnc3[nH]ccc23)c[nH]1)N(CC1CCCC1)CC(F)(F)F [Compound 186] | 100 to 500 | < 100
31 | O=C(c1cc(-c2ncnc3[nH]ccc23)c[nH]1)N(CCC(F)(F)F)C1CCCC1 [Compound 188] | 100 to 500 | < 100

Next, values leading:

Row | Ki [1] [nM] | Ki [2] [nM] | SMILES
32 | < 100 | < 100 | CN(CCC#N)C(=O)c1ccc(-c2ncnc3[nH]ccc23)o1 [Compound 119]
33 | < 100 | < 100 | C[C@@H]1CC[C@@H](C)N1C(=O)c1ccc(-c2ncnc3[nH]ccc23)o1 [Compound 126]
34 | < 100 | < 100 | CN(CC(F)(F)F)C(=O)c1ccc(-c2ncnc3[nH]ccc23)o1 [Compound 127]
35 | < 100 | < 100 | C=CCN(C(=O)CC(C)C)c1nc(-c2ncnc3[nH]ccc23)cs1 [Compound 128]
36 | 100 to 500 | < 100 | CC(C)CC(=O)N(CCCC(F)(F)F)c1nc(-c2ncnc3[nH]ccc23)cs1 [Compound 129]
37 | 100 to 500 | 100 to 500 | Nc1[nH]ncc1-c1ncnc2[nH]ccc12 [Compound 130]
38 | 100 to 500 | < 100 | C[C@@H]1CC[C@H](C)N1C(=O)c1cc(-c2ncnc3[nH]ccc23)c[nH]1 [Compound 132]
39 | 100 to 500 | < 100 | C[C@@H](O)CNC(=O)c1cc(-c2ncnc3[nH]ccc23)c[nH]1 [Compound 133]
40 | < 100 | < 100 | N#CCCN(CCC#N)C(=O)c1cc(-c2ncnc3[nH]ccc23)c[nH]1 [Compound 134]
41 | < 100 | < 100 | CCC(CC)CNC(=O)c1cc(-c2ncnc3[nH]ccc23)c[nH]1 [Compound 138]
42 | 100 to 500 | < 100 | C[C@H](O)CNC(=O)c1cc(-c2ncnc3[nH]ccc23)c[nH]1 [Compound 140]
43 | 100 to 500 | 100 to 500 | CC(C)(CC(=O)O)CC(=O)Nc1nc(-c2ncnc3[nH]ccc23)cs1 [Compound 145]
44 | 100 to 500 | 100 to 500 | Cc1c[nH]c2ncnc(-c3cnn(C)c3)c12 [Compound 160]
45 | 100 to 500 | 100 to 500 | CCCn1cc(-c2ncnc3[nH]cc(C)c23)cn1 [Compound 161]
46 | 100 to 500 | < 100 | Cc1c[nH]c2ncnc(-c3cnn(CC(C)C)c3)c12 [Compound 162]
47 | 100 to 500 | < 100 | Cc1c[nH]c2ncnc(-c3cnn(CCC(C)C)c3)c12 [Compound 163]
48 | 100 to 500 | < 100 | CC(C)CCn1cc(-c2ncnc3[nH]cc(Cl)c23)cn1 [Compound 164]
49 | 100 to 500 | < 100 | CCCn1cc(-c2ncnc3[nH]cc(Cl)c23)cn1 [Compound 165]
50 | 100 to 500 | < 100 | CC(C)Cn1cc(-c2ncnc3[nH]cc(Cl)c23)cn1 [Compound 166]
51 | 100 to 500 | < 100 | CC(=O)NCCCC(=O)Nc1nc(-c2ncnc3[nH]ccc23)cs1 [Compound 168]
52 | 100 to 500 | < 100 | CC(=O)NCCC(=O)Nc1nc(-c2ncnc3[nH]ccc23)cs1 [Compound 174]
53 | 100 to 500 | < 100 | CCC1CC[C@@H](CC)N1C(=O)c1cc(-c2ncnc3[nH]ccc23)c[nH]1 (stereo partly shown) [Compound 184]
54 | 100 to 500 | < 100 | CC[C@@H]1CC[C@@H](CC)N1C(=O)c1cc(-c2ncnc3[nH]ccc23)c[nH]1 [Compound 185]
55 | < 100 | < 100 | CC(C)CN(CCC#N)C(=O)c1cc(-c2ncnc3[nH]ccc23)c[nH]1 [Compound 187]
56 | < 100 | < 100 | CC#CCN(CC(C)C)C(=O)c1cc(-c2ncnc3[nH]ccc23)c[nH]1 [Compound 189]
